Data: US10301306B2, “Substituted dihydro-1H-pyrrolo[3,2-c]pyridin-4(5H)-ones as RIPK3 inhibitors” (BRISTOL-MYERS SQUIBB COMPANY, priority 2014, dated 2019)
pIC50: −log10 of the molar value.

Target: RIPK3 (Homo sapiens (Human), UniProt Q9Y572)
Experiment: RIPK3 HTRF Kinase Assay
Format: binding
Settings: RIPK3 1 nM; HTRF probe 23 nM; 60 min at room temperature; read-out: IC50 for Inhibition of RIPK3

RIPK3, sequence (Q9Y572 whole entry, species assumed): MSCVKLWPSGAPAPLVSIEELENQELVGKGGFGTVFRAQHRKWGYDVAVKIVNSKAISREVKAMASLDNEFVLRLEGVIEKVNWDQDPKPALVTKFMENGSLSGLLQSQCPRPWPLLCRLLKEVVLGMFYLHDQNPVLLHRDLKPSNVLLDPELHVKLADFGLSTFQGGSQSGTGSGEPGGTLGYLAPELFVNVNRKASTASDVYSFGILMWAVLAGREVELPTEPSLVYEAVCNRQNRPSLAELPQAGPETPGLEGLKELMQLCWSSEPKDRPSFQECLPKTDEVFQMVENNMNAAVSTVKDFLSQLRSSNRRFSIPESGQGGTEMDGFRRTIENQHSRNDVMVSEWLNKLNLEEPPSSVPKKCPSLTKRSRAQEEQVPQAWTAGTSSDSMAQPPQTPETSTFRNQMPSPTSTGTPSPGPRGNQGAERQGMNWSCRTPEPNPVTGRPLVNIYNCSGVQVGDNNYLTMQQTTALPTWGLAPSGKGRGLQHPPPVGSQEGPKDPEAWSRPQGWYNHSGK

How did the pIC50 turn out when Cc1n[nH]cc1-c1c(-c2ccc(F)cc2)c2c(n1Cc1ccc(F)cc1C#N)CCNC2=O [Example 1, 5-Fluoro-2-((3-(4-fluorophenyl)-2-(3-methyl-1H-pyrazol-4-yl)-4-oxo-4,5,6,7-tetrahydro-1H-pyrrolo[3,2-c]pyridin-1-yl)methyl)benzonitrile] was run?
The pIC50 was 4.82 to 7.00.

How did the pIC50 turn out when N#Cc1cccc(Cn2c3c(c(-c4ccc(F)cc4)c2-c2ccncc2)C(=O)NCC3)c1 [Example 2, 3-((3-(4-Fluorophenyl)-4-oxo-2-(pyridin-4-yl)-4,5,6,7-tetrahydro-1H-pyrrolo[3,2-c]pyridin-1-yl)methyl)benzonitrile] was run?
The pIC50 was greater than 7.52.

CC(=O)Nc1cc(-c2c(-c3ccc(F)cc3)c3c(n2CC2CCOCC2)CCNC3=O)ccn1 [Example 3, N-(4-(3-(4-Fluorophenyl)-4-oxo-1-((tetrahydro-2H-pyran-4-yl)methyl)-4,5,6,7-tetrahydro-1H-pyrrolo[3,2-c]pyridin-2-yl)pyridin-2-yl)acetamide] was tested. Which pIC50 did it give?
The pIC50 was 4.82 to 7.00.

With CC(=O)Nc1cc(-c2c(-c3ccc(F)cc3)c3c(n2Cc2ccc(C)cc2)CCNC3=O)ccn1 [Example 4, N-(4-(3-(4-Fluorophenyl)-1-(4-methylbenzyl)-4-oxo-4,5,6,7-tetrahydro-1H-pyrrolo[3,2-c]pyridin-2-yl)pyridin-2-yl)acetamide] as the compound, how does the pIC50 read?
Its pIC50 is greater than 7.52.

With O=C1NCCc2c1c(-c1cccc(-c3ccccc3)c1)c(-c1ccncc1)n2CC1CCOCC1 [Example 5, 3-([1,1′-Biphenyl]-3-yl)-2-(pyridin-4-yl)-1-((tetrahydro-2H-pyran-4-yl)methyl)-6,7-dihydro-1H-pyrrolo[3,2-c]pyridin-4(5H)-one] as the compound, how does the pIC50 read?
Its pIC50 is 4.82 to 7.00.

How did the pIC50 turn out when O=C1NCCc2c1c(-c1ccc(F)cc1)c(-c1ccnc(Cl)c1)n2Cc1ccc(C(F)(F)F)cc1F [Example 6, 2-(2-Chloropyridin-4-yl)-1-(2-fluoro-4-(trifluoromethyl)benzyl)-3-(4-fluorophenyl)-6,7-dihydro-1H-pyrrolo[3,2-c]pyridin-4(5H)-one] was run?
The pIC50 was 4.82 to 7.00.

With CC(C)C(=O)Nc1cc(-c2c(-c3ccc(F)cc3)c3c(n2Cc2ccc(C(F)(F)F)cc2F)CCNC3=O)ccn1 [Example 7, N-(4-(1-(2-Fluoro-4-(trifluoromethyl)benzyl)-3-(4-fluorophenyl)-4-oxo-4,5,6,7-tetrahydro-1H-pyrrolo[3,2-c]pyridin-2-yl)pyridin-2-yl)isobutyramide] as the compound, how does the pIC50 read?
The pIC50 was 4.82 to 7.00.

How did the pIC50 turn out when O=C1NCCc2c1c(-c1ccc(F)cc1)c(-c1ccnc(NC(=O)C3CC3)c1)n2Cc1ccc(C(F)(F)F)cc1F [Example 8, N-(4-(1-(2-Fluoro-4-(trifluoromethyl)benzyl)-3-(4-fluorophenyl)-4-oxo-4,5,6,7-tetrahydro-1H-pyrrolo[3,2-c]pyridin-2-yl)pyridin-2-yl)cyclopropanecarboxamide] was run?
Its pIC50 is greater than 7.52.

How did the pIC50 turn out when N#Cc1cc(F)ccc1Cn1c2c(c(-c3ccc(C(F)(F)F)cc3)c1-c1ccncc1)C(=O)NCC2 [Example 9, 5-Fluoro-2-((4-oxo-2-(pyridin-4-yl)-3-(4-(trifluoromethyl)phenyl)-4,5,6,7-tetrahydro-1H-pyrrolo[3,2-c]pyridin-1-yl)methyl)benzonitrile] was run?
Its pIC50 is 7.00 to 7.51.

CNc1cc(-c2c(-c3ccc(F)cc3)c3c(n2Cc2ccc(C(F)(F)F)cc2F)CCNC3=O)ccn1 [Example 10] was tested. Which pIC50 did it give?
The pIC50 was 4.82 to 7.00.

With N#Cc1cc(F)ccc1Cn1c2c(c(-c3cccnc3)c1-c1ccnc(Cl)c1)C(=O)NCC2 [Example 11, 2-((2-(2-Chloropyridin-4-yl)-4-oxo-3-(pyridin-3-yl)-4,5,6,7-tetrahydro-1H-pyrrolo[3,2-c]pyridin-1-yl)methyl)-5-fluorobenzonitrile] as the compound, how does the pIC50 read?
The pIC50 was 4.82 to 7.00.

How did the pIC50 turn out when Nc1cc(-c2c(-c3ccc(F)cc3)c3c(n2Cc2ccc(C(F)(F)F)cc2F)CCNC3=O)ccn1 [Example 12, 2-(2-Aminopyridin-4-yl)-1-(2-fluoro-4-(trifluoromethyl)benzyl)-3-(4-fluorophenyl)-6,7-dihydro-1H-pyrrolo[3,2-c]pyridin-4(5H)-one] was run?
Its pIC50 is 4.82 to 7.00.

How did the pIC50 turn out when Cc1noc(-c2ccc(Cn3c4c(c(-c5ccc(F)cc5)c3-c3ccncc3)C(=O)NCC4)cc2)n1 [Example 13, 3-(4-Fluorophenyl)-1-(4-(3-methyl-1,2,4-oxadiazol-5-yl)benzyl)-2-(pyridin-4-yl)-6,7-dihydro-1H-pyrrolo[3,2-c]pyridin-4(5H)-one] was run?
The pIC50 was greater than 7.52.

With N#Cc1cc(F)ccc1Cn1c2c(c(-c3cccs3)c1-c1ccncc1)C(=O)NCC2 [Example 14, 5-Fluoro-2-((4-oxo-2-(pyridin-4-yl)-3-(thiophen-2-yl)-4,5,6,7-tetrahydro-1H-pyrrolo[3,2-c]pyridin-1-yl)methyl)benzonitrile] as the compound, how does the pIC50 read?
The pIC50 was greater than 7.52.

COc1cnccc1-c1c(-c2ccc(F)cc2)c2c(n1Cc1ccc(F)cc1C#N)CCNC2=O [Example 15] was tested. Which pIC50 did it give?
The pIC50 was 7.00 to 7.51.

With N#Cc1cc(F)ccc1Cn1c2c(c(-c3ccc(F)cc3)c1-c1ccnc(C(F)(F)F)c1)C(=O)NCC2 [Example 16] as the compound, how does the pIC50 read?
The pIC50 was 4.82 to 7.00.

With N#Cc1cc(F)ccc1Cn1c2c(c(-c3ccc(F)cc3)c1-c1cncnc1)C(=O)NCC2 [Example 17] as the compound, how does the pIC50 read?
Its pIC50 is 4.82 to 7.00.

N#Cc1cc(F)ccc1Cn1c2c(c(-c3ccc(F)cc3)c1-c1ccc3[nH]ccc3c1)C(=O)NCC2 [Example 19] was tested. Which pIC50 did it give?
Its pIC50 is 4.82 to 7.00.

Cc1cc(-c2c(-c3ccc(F)cc3)c3c(n2Cc2ccc(F)cc2C#N)CCNC3=O)ccn1 [Example 20] was tested. Which pIC50 did it give?
Its pIC50 is 7.00 to 7.51.

CC(=O)Nc1cccc(-c2c(-c3ccc(F)cc3)c3c(n2Cc2ccc(F)cc2C#N)CCNC3=O)c1 [Example 21] was tested. Which pIC50 did it give?
Its pIC50 is 4.82 to 7.00.

N#Cc1cc(F)ccc1Cn1c2c(c(-c3ccc(F)cc3)c1-c1ccnc(Cl)c1)C(=O)NCC2 [Example 22] was tested. Which pIC50 did it give?
Its pIC50 is 4.82 to 7.00.

With N#Cc1cc(F)ccc1Cn1c2c(c(-c3ccc(F)cc3)c1-c1ccoc1)C(=O)NCC2 [Example 23] as the compound, how does the pIC50 read?
Its pIC50 is 4.82 to 7.00.

With Cn1cc(-c2c(-c3ccc(F)cc3)c3c(n2Cc2ccc(F)cc2C#N)CCNC3=O)cn1 [Example 24] as the compound, how does the pIC50 read?
The pIC50 was 4.82 to 7.00.

N#Cc1cc(F)ccc1Cn1c2c(c(-c3ccc(F)cc3)c1-c1ccsc1)C(=O)NCC2 [Example 25] was tested. Which pIC50 did it give?
The pIC50 was 4.82 to 7.00.

How did the pIC50 turn out when COc1ncc(-c2c(-c3ccc(F)cc3)c3c(n2Cc2ccc(F)cc2C#N)CCNC3=O)cn1 [Example 26] was run?
The pIC50 was 4.82 to 7.00.

With N#Cc1cc(F)ccc1Cn1c2c(c(-c3ccc(F)cc3)c1-c1ccncc1F)C(=O)NCC2 [Example 27] as the compound, how does the pIC50 read?
The pIC50 was greater than 7.52.

N#Cc1ccc(Cn2c3c(c(-c4ccc(F)cc4)c2-c2ccncc2)C(=O)NCC3)cc1 [Example 28] was tested. Which pIC50 did it give?
The pIC50 was 7.00 to 7.51.

O=C1NCCc2c1c(-c1ccc(F)cc1)c(-c1ccncc1)n2CC1CCNCC1 [Example 30] was tested. Which pIC50 did it give?
Its pIC50 is 4.82 to 7.00.

O=C1NCCc2c1c(-c1ccc(F)cc1)c(-c1ccncc1)n2CC1CCOCC1 [Example 31] was tested. Which pIC50 did it give?
Its pIC50 is 4.82 to 7.00.

With O=C1NCCc2c1c(-c1ccc(F)cc1)c(-c1ccncc1)n2Cc1ccc(C(F)(F)F)cc1 [Example 33] as the compound, how does the pIC50 read?
The pIC50 was 7.00 to 7.51.

How did the pIC50 turn out when N#Cc1cc(F)ccc1Cn1c2c(c(-c3ccc(F)cc3)c1-c1ccncc1)C(=O)NCC2 [Example 34] was run?
Its pIC50 is greater than 7.52.

With N#Cc1ccc(Cn2c3c(c(-c4ccc(F)cc4)c2-c2ccncc2)C(=O)NCC3)cc1F [Example 35] as the compound, how does the pIC50 read?
Its pIC50 is 7.00 to 7.51.

With CC(c1ccccc1)n1c2c(c(-c3ccc(F)cc3)c1-c1ccncc1)C(=O)NCC2 (stereo not drawn) [Example 36] as the compound, how does the pIC50 read?
The pIC50 was 4.82 to 7.00.

How did the pIC50 turn out when COc1ccc(CCn2c3c(c(-c4ccc(F)cc4)c2-c2ccncc2)C(=O)NCC3)cc1 [Example 37] was run?
Its pIC50 is 4.82 to 7.00.

COc1ccc(Cn2c3c(c(-c4ccc(F)cc4)c2-c2ccncc2)C(=O)NCC3)cc1 [Example 38] was tested. Which pIC50 did it give?
The pIC50 was greater than 7.52.

O=C1NCCc2c1c(-c1ccc(F)cc1)c(-c1ccncc1)n2Cc1ccc(OC(F)(F)F)c(Cl)c1 [Example 40] was tested. Which pIC50 did it give?
Its pIC50 is 4.82 to 7.00.

O=C1NCCc2c1c(-c1ccc(F)cc1)c(-c1ccncc1)n2Cc1cc(F)cc(C(F)(F)F)c1 [Example 41] was tested. Which pIC50 did it give?
The pIC50 was greater than 7.52.

With CS(=O)(=O)c1ccc(Cn2c3c(c(-c4ccc(F)cc4)c2-c2ccncc2)C(=O)NCC3)cc1 [Example 42] as the compound, how does the pIC50 read?
Its pIC50 is 4.82 to 7.00.

With O=C1NCCc2c1c(-c1ccc(F)cc1)c(-c1ccncc1)n2Cc1ccc(C(F)(F)F)cc1F [Example 43] as the compound, how does the pIC50 read?
Its pIC50 is greater than 7.52.

With O=C1NCCc2c1c(-c1ccc(F)cc1)c(-c1ccncc1)n2Cc1ccc(F)cc1 [Example 44] as the compound, how does the pIC50 read?
The pIC50 was greater than 7.52.

How did the pIC50 turn out when Cc1cc(Cn2c3c(c(-c4ccc(F)cc4)c2-c2ccncc2)C(=O)NCC3)ccc1F [Example 46] was run?
The pIC50 was greater than 7.52.

How did the pIC50 turn out when O=C1NCCc2c1c(-c1ccc(F)cc1)c(-c1ccncc1)n2Cc1nnc(C2CC2)s1 [Example 47] was run?
Its pIC50 is 4.82 to 7.00.

Cc1nc(-c2ccc(Cn3c4c(c(-c5ccc(F)cc5)c3-c3ccncc3)C(=O)NCC4)c(F)c2)no1 [Example 48] was tested. Which pIC50 did it give?
Its pIC50 is greater than 7.52.

N#CCn1c2c(c(-c3ccc(F)cc3)c1-c1ccncc1)C(=O)NCC2 [Example 49] was tested. Which pIC50 did it give?
Its pIC50 is 4.82 to 7.00.

How did the pIC50 turn out when Cc1noc(C)c1Cn1c2c(c(-c3ccc(F)cc3)c1-c1ccncc1)C(=O)NCC2 [Example 50] was run?
The pIC50 was 4.82 to 7.00.

N#Cc1ccc(Cn2c3c(c(-c4ccc(F)cc4)c2-c2ccncc2)C(=O)NCC3)c(F)c1 [Example 51] was tested. Which pIC50 did it give?
Its pIC50 is greater than 7.52.

With O=C1NCCc2c1c(-c1ccc(F)cc1)c(-c1ccncc1)n2Cc1ccc(C2CC2)cc1 [Example 52] as the compound, how does the pIC50 read?
The pIC50 was 7.00 to 7.51.

How did the pIC50 turn out when O=C1NCCc2c1c(-c1ccc(F)cc1)c(-c1ccncc1)n2Cc1ccc(C(F)(F)F)cc1C(F)(F)F [Example 53] was run?
Its pIC50 is greater than 7.52.

With N#Cc1ccc(Cn2c3c(c(-c4ccc(F)cc4)c2-c2ccncc2)C(=O)NCC3)nc1 [Example 54] as the compound, how does the pIC50 read?
The pIC50 was 7.00 to 7.51.

With O=C1NCCc2c1c(-c1ccc(F)cc1)c(-c1ccncc1)n2Cc1ccc(F)cc1C(F)(F)F [Example 55] as the compound, how does the pIC50 read?
Its pIC50 is greater than 7.52.

With O=C1NCCc2c1c(-c1ccc(F)cc1)c(-c1ccncc1)n2Cc1nnc(C2CC2)o1 [Example 56] as the compound, how does the pIC50 read?
Its pIC50 is 4.82 to 7.00.

With CC(C)Cn1c2c(c(-c3ccc(F)cc3)c1-c1ccncc1)C(=O)NCC2 [Example 58] as the compound, how does the pIC50 read?
Its pIC50 is 7.00 to 7.51.

With N#CCCCn1c2c(c(-c3ccc(F)cc3)c1-c1ccncc1)C(=O)NCC2 [Example 59] as the compound, how does the pIC50 read?
Its pIC50 is 4.82 to 7.00.

How did the pIC50 turn out when Cc1nc(Cn2c3c(c(-c4ccc(F)cc4)c2-c2ccncc2)C(=O)NCC3)cs1 [Example 60] was run?
Its pIC50 is 7.00 to 7.51.

Same assay, conditions: read-out: IC50 for Inhibition of RIPK3

With N#Cc1cc(F)ccc1Cn1c2c(c(-c3ccc(F)cc3)c1-c1ccnc(F)c1)C(=O)NCC2 [Example 18] as the compound, how does the pIC50 read?
Its pIC50 is 4.82 to 7.00.

With O=C1NCCc2c1c(-c1ccc(F)cc1)c(-c1ccncc1)n2CC1CCCNC1 (stereo not drawn) [Example 32] as the compound, how does the pIC50 read?
Its pIC50 is 4.82 to 7.00.

How did the pIC50 turn out when Cc1ccc(Cn2c3c(c(-c4ccc(F)cc4)c2-c2ccncc2)C(=O)NCC3)cc1 [Example 45] was run?
The pIC50 was 7.00 to 7.51.
